From patent US20230355646A1, “AUTOPHAGY ACTIVATOR” (Resonac Corporation, priority 2020, published 2023)

Assays:
ATG7 gene = ATG7 gene expression promoting effect in human neuroblastoma SH-SY5Y in the presence of amyloid β; type: cell-based
Procedure: (§1) In the presence of an autophagy activator, the expression levels of the LC3 gene, ATG5 gene, and ATG7 gene in human neuroblastoma (SH-SY5Y; obtained from ATCC) were measured by the following test method, and the effect of promoting the expression of the LC3 gene, ATG5 gene, and ATG7 gene by an autophagy activator was evaluated.
(§2) In the following examples and comparative examples, tests were performed by adding amyloid β, which is known to cause a decrease in autophagy in nerve cells, to each medium.
(§3) SH-SY5Y cells were prepared at a seeding density of 10000 cells/cm^2 and cultured for 24 hours in D-MEM medium/Ham's F-12 medium (manufactured by Sigma-Aldrich) to which 10% fetal bovine serum (manufactured by MP Biomedicals) was added. Next, in Example 15, the methyl hesperidin DMSO solution was added to the medium such that the final concentration of methyl hesperidin was 10^−3% (V/V) and the final concentration of DMSO was 0.1% (V/V). […]
(§4) Then, using Nucleospin (registered trademark) RNA kit (manufactured by Takara Bio Inc.), RNA was extracted from SH-SY5Y cells in each example, and cDNA was synthesized from the obtained RNA. Next, using this cDNA as a template, by quantitative real-time PCR, the expression level of each gene was quantified using primers (manufactured by Takara Bio Inc.) specific to the LC3 gene, ATG5 gene, and ATG7 gene, respectively. […]

LC3 gene = LC3 gene expression promoting effect in human neuroblastoma SH-SY5Y in the presence of amyloid β; type: cell-based
Procedure: as §1, §2, §3, §4

[1] = SH-SY5Y cells with amyloid β, compared to DMSO and amyloid β of Comparative Example 5
[2] = SH-SY5Y cells, 20 μM amyloid β present, 10^−2% (V/V) methyl hesperidin or hesperidin, additional ingredient where in the example, 48 hours, Reference Example 3 = 1.00

Structure (SMILES): COc1ccc([C@@H]2CC(=O)c3c(O)cc(O[C@@H]4O[C@H](CO[C@@H]5O[C@@H](C)[C@H](O)[C@@H](O)[C@H]5O)[C@@H](O)[C@H](O)[C@H]4O)cc3O2)cc1O [Comparative Example 2, hesperidin]
- expression level of the ATG7 gene (in words) (ATG7 gene; [1]): increased
- Relative gene expression level ATG7 (ATG7 gene; [2]): 2.31
- expression level of the LC3 gene (in words) (LC3 gene; [1]): increased
- Relative gene expression level LC3 (LC3 gene; [2]): 2.41
